# Assay results published in patent US10138226B2, “Benzimidazol-2-amines as MIDH1 inhibitors” (Bayer Pharma Aktiengesellschaft, priority 2014, dated 2018).
# Biological target: IDH1 R132H enzyme (Homo sapiens (Human), UniProt O75874, R132H)
# Test: Mutant IDH1 R132H biochemical assay; note: 1.5 nM enzyme
# Details: NADPH consumption, luminescent readout, 250 μM α-KG, 1 μM NADPH, 32° C., 30 minutes, test range 0.002-10 μM
# Method: mIDH1 catalyzes the NADPH-dependent reduction of alpha-ketoglutarate (α-KG) to (2R)-2-hydroxyglutarate (2-HG). NADPH consumption was measured by luminescent readout.
# The biochemical reactions were performed at 32° C. in 384-well plates using a reaction volume of 41 μl and the following assay buffer conditions: 50 mM Tris pH 7.5, 100 mM NaCl, 20 mM MgCl2, 0.05% BSA, 0.01% Brij, 1 μM NADPH, and 250 μM α-KG. […] Test compounds were used in a concentration range between 0.002 and 10 μM. The final DMSO concentration was 2.4%.
# The reaction was incubated for 30 minutes, then 40 μl of detection mix (0.75 μg/ml Luciferase, 0.02 U/ml Oxidoreductase, 4 μg/ml FMN, 2 μl/ml Decanal/Ethanol, 50 mM Tris pH 7.5, 0.5% Glycerin, 0.01% Tween-20, 0.05% BSA) was added. Luminescence was measured on a luminescent reader (10 seconds measuring time, 1 second integration period, 30% sensitivity). The decrease in luminescence is proportional to mIDH1 activity. IC50 values are determined by interpolation from plots of relative luminescence versus inhibitor concentration.
# Chain of IDH1 R132H enzyme (O75874 whole entry R132H): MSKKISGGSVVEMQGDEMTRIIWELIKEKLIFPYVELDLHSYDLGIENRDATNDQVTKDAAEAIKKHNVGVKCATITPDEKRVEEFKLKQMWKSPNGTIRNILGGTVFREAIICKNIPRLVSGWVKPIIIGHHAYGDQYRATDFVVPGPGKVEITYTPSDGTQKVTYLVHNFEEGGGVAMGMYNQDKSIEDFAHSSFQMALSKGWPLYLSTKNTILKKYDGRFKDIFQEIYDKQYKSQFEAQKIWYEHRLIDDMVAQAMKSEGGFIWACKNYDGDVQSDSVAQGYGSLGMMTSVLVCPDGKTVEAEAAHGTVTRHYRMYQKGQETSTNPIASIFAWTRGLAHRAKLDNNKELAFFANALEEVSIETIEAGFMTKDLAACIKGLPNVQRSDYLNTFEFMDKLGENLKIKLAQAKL
row,Compound,IC50 [µM]
1,"C[C@@H]1C[C@H](n2c(Nc3ccc(OC(F)(F)F)cc3)nc3ccc(C(=O)NC4CCCC4)cc32)CC(C)(C)C1 (racemic) [Example 2-5, (±) N-cyclopentyl-2-{[4-(trifluoromethoxy)phenyl]amino}-1-[(cis)-3,3,5-trimethylcyclohexyl]-1H-benzimidazole-6-carboxamide]",≥ 10
2,"CNC(=O)c1ccc2nc(Nc3ccc(OC(F)(F)F)cc3)n([C@H]3C[C@@H](C)CC(C)(C)C3)c2c1 (racemic) [Example 2-8, (±) N-methyl-2-{[4-(trifluoromethoxy)phenyl]amino}-1-[(cis)-3,3,5-trimethylcyclohexyl]-1H-benzimidazole-6-carboxamide]",0.43
3,"COC(=O)CNC(=O)c1ccc2nc(Nc3ccc(OC(F)(F)F)cc3)n([C@H]3C[C@@H](C)CC(C)(C)C3)c2c1 (racemic) [Example 2-10, (±) methyl N-[(2-{[4-(trifluoromethoxy)phenyl]amino}-1-[(cis)-3,3,5-trimethylcyclohexyl]-1H-benzimidazol-6-yl)carbonyl]glycinate]",6.6
4,"C[C@@H]1C[C@H](n2c(Nc3ccc(OC(F)(F)F)cc3)nc3ccc(C(=O)N(C)CC(=O)O)cc32)CC(C)(C)C1 (racemic) [Example 2-11, (±) N-methyl-N-[(2-{[4-(trifluoromethoxy)phenyl]amino}-1-[(cis)-3,3,5-trimethylcyclohexyl]-1H-benzimidazol-6-yl)carbonyl]glycine]",7.6
5,"C[C@@H]1C[C@H](n2c(Nc3ccc(OC(F)(F)F)cc3)nc3ccc(C(=O)NCCO)cc32)CC(C)(C)C1 (racemic) [Example 2-13, (±) N-(2-hydroxyethyl)-2-{[4-(trifluoromethoxy)phenyl]amino}-1-[(cis)-3,3,5-trimethylcyclohexyl]-1H-benzimidazole-6-carboxamide]",2.2
6,"COC(=O)CCNC(=O)c1ccc2nc(Nc3ccc(OC(F)(F)F)cc3)n([C@H]3C[C@@H](C)CC(C)(C)C3)c2c1 (racemic) [Example 2-14, (±) methyl N-[(2-{[4-(trifluoromethoxy)phenyl]amino}-1-[(cis)-3,3,5-trimethylcyclohexyl]-1H-benzimidazol-6-yl)carbonyl]-β-alaninate]",≥ 10
7,"C[C@@H]1C[C@H](n2c(Nc3ccc(OC(F)(F)F)cc3)nc3ccc(C(=O)NCCC(=O)O)cc32)CC(C)(C)C1 (racemic) [Example 2-15, (±) N-[(2-{[4-(trifluoromethoxy)phenyl]amino}-1-[(cis)-3,3,5-trimethylcyclohexyl]-1H-benzimidazol-6-yl)carbonyl]-β-alanine]",≥ 10
8,"C[C@@H]1C[C@H](n2c(Nc3ccc(OC(F)(F)F)cc3)nc3ccc(C(=O)NS(C)(=O)=O)cc32)CC(C)(C)C1 (racemic) [Example 2-19, (±) N-(methylsulfonyl)-2-{[4-(trifluoromethoxy)phenyl]amino}-1-[(cis)-3,3,5-trimethylcyclohexyl]-1H-benzimidazole-6-carboxamide]",≥ 10
9,"C[C@@H]1C[C@H](n2c(Nc3ccc(OC(F)(F)F)cc3)nc3ccc(C(=O)NCc4ccc(F)cc4)cc32)CC(C)(C)C1 (racemic) [Example 2-21, (±) N-(4-fluorobenzyl)-2-{[4-(trifluoromethoxy)phenyl]amino}-1-[(cis)-3,3,5-trimethylcyclohexyl]-1H-benzimidazole-6-carboxamide]",≥ 10
10,"C[C@@H]1C[C@H](n2c(Nc3ccc(OC(F)(F)F)cc3)nc3ccc(C(=O)Nc4ccc(F)cc4)cc32)CC(C)(C)C1 (racemic) [Example 2-22, (±) N-(4-fluorophenyl)-2-{[4-(trifluoromethoxy)phenyl]amino}-1-[(cis)-3,3,5-trimethylcyclohexyl]-1H-benzimidazole-6-carboxamide]",≥ 10
11,"C[C@@H]1C[C@H](n2c(Nc3ccc(OC(F)(F)F)cc3)nc3ccc(C(=O)NC4CC4)cc32)CC(C)(C)C1 (racemic) [Example 2-23, (±) N-cyclopropyl-2-{[4-(trifluoromethoxy)phenyl]amino}-1-[(cis)-3,3,5-trimethylcyclohexyl]-1H-benzimidazole-6-carboxamide]",≥ 10
12,"CCOC(=O)CCN(C)C(=O)c1ccc2nc(Nc3ccc(OC(F)(F)F)cc3)n([C@H]3C[C@@H](C)CC(C)(C)C3)c2c1 (racemic) [Example 2-24, (±) ethyl N-methyl-N-[(2-{[4-(trifluoromethoxy)phenyl]amino}-1-[(cis)-3,3,5-trimethylcyclohexyl]-1H-benzimidazol-6-yl)carbonyl]-β-alaninate]",≥ 10
13,"C[C@H]1C[C@H](n2c(Nc3ccc(OC(F)(F)F)cc3)nc3ccc(C(=O)N(C)C)cc32)CC(C)(C)C1 (racemic) [Example 2-25, (±) N,N-dimethyl-2-{[4-(trifluoromethoxy)phenyl]amino}-1-[(trans)-3,3,5-trimethylcyclohexyl]-1H-benzimidazole-6-carboxamide]",0.47
14,"CNC(=O)c1ccc2nc(Nc3ccc(OC(F)(F)F)cc3)n([C@H]3C[C@@H](C)CC(C)(C)C3)c2c1 (single isomer, unassigned; enantiomer a) [Example 2-8-1, N-methyl-2-{[4-(trifluoromethoxy)phenyl]amino}-1-[(cis)-3,3,5-trimethylcyclohexyl]-1H-benzimidazole-6-carboxamide, enantiomer A]",0.92
15,"C[C@@H]1C[C@H](n2c(Nc3ccc(OC(F)(F)F)cc3)nc3ccc(C(=O)NC4CC4)cc32)CC(C)(C)C1 (single isomer, unassigned; enantiomer a) [Example 2-23-1, N-cyclopropyl-2-{[4-(trifluoromethoxy)phenyl]amino}-1-[(cis)-3,3,5-trimethylcyclohexyl]-1H-benzimidazole-6-carboxamide, enantiomer A]",≥ 10
16,"CNC(=O)c1ccc2nc(Nc3ccc(OC(F)(F)F)cc3)n([C@H]3C[C@@H](C)CC(C)(C)C3)c2c1 (single isomer, unassigned; enantiomer b) [Example 2-8-2, N-methyl-2-{[4-(trifluoromethoxy)phenyl]amino}-1-[(cis)-3,3,5-trimethylcyclohexyl]-1H-benzimidazole-6-carboxamide, enantiomer B]",1.2
17,"C[C@@H]1C[C@H](n2c(Nc3ccc(OC(F)(F)F)cc3)nc3ccc(C(=O)NC4CC4)cc32)CC(C)(C)C1 (single isomer, unassigned; enantiomer b) [Example 2-23-2, N-cyclopropyl-2-{[4-(trifluoromethoxy)phenyl]amino}-1-[(cis)-3,3,5-trimethylcyclohexyl]-1H-benzimidazole-6-carboxamide, enantiomer B]",≥ 10
